Test results as given in patent US20090018111A1, “Novel Antimicrobial Medicament” (priority 2004, published 2009).
Like-named read-outs stand apart in the source and are kept apart here.

Legend:
S. maltophilia IID1275 = test: Sensitivity test (agar dilution); format: cell-based, Stenotrophomonas maltophilia; conditions: Stenotrophomonas maltophilia, S. maltophilia IID1275
Method in brief: (§1)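 Minimum inhibitory concentrations come from agar dilution in MHA, with single agents or combinations in twofold steps. Inocula: about 5 μl at about 10^6 CFU/ml. An FIC index of at most 1 marks a positive combination effect; above 1, negative.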

S. epidermidis IAM1296 = test: Sensitivity test (agar dilution); format: cell-based, Staphylococcus epidermidis; conditions: Staphylococcus epidermidis, S. epidermidis IAM1296
Method in brief: as §1

E. cloacae GN7471 = test: Sensitivity test (agar dilution); format: cell-based, Enterobacter cloacae; conditions: Enterobacter cloacae, E. cloacae GN7471
Method in brief: as §1

M. catarrhalis ATCC25238 = test: Sensitivity test (agar dilution); format: cell-based, Moraxella catarrhalis; conditions: Moraxella catarrhalis, M. catarrhalis ATCC25238
Method in brief: as §1

M. catarrhalis ATCC8176 = test: Sensitivity test (agar dilution); format: cell-based, Moraxella catarrhalis; conditions: Moraxella catarrhalis, M. catarrhalis ATCC8176
Method in brief: as §1

E. faecium ATCC19434 = test: Sensitivity test (agar dilution); format: cell-based, Enterococcus faecium; conditions: Enterococcus faecium, E. faecium ATCC19434
Method in brief: as §1

M. luteus ATCC9341 = test: Sensitivity test (agar dilution); format: cell-based, Micrococcus luteus; conditions: Micrococcus luteus, M. luteus ATCC9341
Method in brief: as §1

C. freundii GN346 = test: Sensitivity test (agar dilution); format: cell-based, Citrobacter freundii; conditions: Citrobacter freundii, C. freundii GN346
Method in brief: as §1

S. marcescens GN6473 = test: Sensitivity test (agar dilution); format: cell-based, Serratia marcescens; conditions: Serratia marcescens, S. marcescens GN6473
Method in brief: as §1

S. marcescens X 100 = test: Sensitivity test (agar dilution); format: cell-based, Serratia marcescens; conditions: Serratia marcescens, S. marcescens X 100
Method in brief: as §1

K. pneumoniae ATCC10031 = test: Sensitivity test (agar dilution); format: cell-based, Klebsiella pneumoniae; conditions: Klebsiella pneumoniae, K. pneumoniae ATCC10031
Method in brief: as §1

E. coli ML1410 RP4 = test: microbe, parasite or virus in culture; format: cell-based, Escherichia coli; conditions: Escherichia coli, E. coli ML1410 RP4
Method in brief: as §1

P. mirabiris GN2425 = test: Sensitivity test (agar dilution); format: cell-based, Proteus mirabilis; conditions: Proteus mirabilis, P. mirabiris GN2425
Method in brief: as §1

C[C@H]1[C@H](NC(=O)/C(=N\OC(C)(C)C(=O)O)c2csc(N)n2)C(=O)N1S(=O)(=O)O [AZT, aztreonam]
MIC (S. maltophilia IID1275; IID1275, Concomitant (AZT:SM = 1:1), read-out: MIC concomitant): > 32 µg/mL | MIC (S. maltophilia IID1275; IID1275, drug alone, read-out: MIC alone): > 32 µg/mL | MIC (S. epidermidis IAM1296; IAM1296, Concomitant (AZT:SM = 1:1), read-out: MIC concomitant): 0.031 µg/mL | MIC (S. epidermidis IAM1296; IAM1296, drug alone, read-out: MIC alone): > 32 µg/mL | MIC (E. cloacae GN7471; GN7471, Concomitant (AZT:SM = 1:1), read-out: MIC concomitant): 4 µg/mL | MIC (E. cloacae GN7471; GN7471, drug alone, read-out: MIC alone): 16 µg/mL | MIC (M. catarrhalis ATCC25238; ATCC25238, Concomitant (AZT:SM = 1:1), read-out: MIC concomitant): ≤ 0.002 µg/mL | MIC (M. catarrhalis ATCC25238; ATCC25238, drug alone, read-out: MIC alone): 0.125 µg/mL | MIC (M. catarrhalis ATCC8176; ATCC8176, Concomitant (AZT:SM = 1:1), read-out: MIC concomitant): ≤ 0.002 µg/mL | MIC (M. catarrhalis ATCC8176; ATCC8176, drug alone, read-out: MIC alone): 0.25 µg/mL | MIC (E. faecium ATCC19434; ATCC19434, Concomitant (AZT:SM = 1:1), read-out: MIC concomitant): 0.125 µg/mL | MIC (E. faecium ATCC19434; ATCC19434, drug alone, read-out: MIC alone): > 32 µg/mL | MIC (M. luteus ATCC9341; ATCC9341, Concomitant (AZT:SM = 1:1), read-out: MIC concomitant): ≤ 0.002 µg/mL | MIC (M. luteus ATCC9341; ATCC9341, drug alone, read-out: MIC alone): 16 µg/mL | MIC (C. freundii GN346; GN346, Concomitant (AZT:SM = 1:1), read-out: MIC concomitant): 8 µg/mL | MIC (C. freundii GN346; GN346, drug alone, read-out: MIC alone): 0.5 µg/mL | MIC (S. marcescens GN6473; GN6473, Concomitant (AZT:SM = 1:1), read-out: MIC concomitant): 0.25 µg/mL | MIC (S. marcescens GN6473; GN6473, drug alone, read-out: MIC alone): 0.125 µg/mL | MIC (S. marcescens X 100; X100, Concomitant (AZT:SM = 1:1), read-out: MIC concomitant): 0.031 µg/mL | MIC (S. marcescens X 100; X100, drug alone, read-out: MIC alone): 0.063 µg/mL | MIC (K. pneumoniae ATCC10031; ATCC10031, Concomitant (AZT:SM = 1:1), read-out: MIC concomitant): 0.004 µg/mL | MIC (K. pneumoniae ATCC10031; ATCC10031, drug alone, read-out: MIC alone): 0.004 µg/mL | MIC (E. coli ML1410 RP4; ML1410RP4, read-out: MIC alone, drug alone): 0.125 µg/mL | MIC (E. coli ML1410 RP4; ML1410RP4, read-out: MIC concomitant, Concomitant (AZT:SM = 1:1)): 0.063 µg/mL | MIC (P. mirabiris GN2425; GN2425, Concomitant (AZT:SM = 1:1), read-out: MIC concomitant): 0.004 µg/mL | MIC (P. mirabiris GN2425; GN2425, drug alone, read-out: MIC alone): 0.004 µg/mL
